Like-named read-outs stand apart in the source and are kept apart here.
Legend:
SK-hep1 cells = assay: Cell viability assay (ALAMAR BLUE), SK-hep1 cells with or without ectopic SLC29A2; assay type: cell-based
Experimental: HCC cell lines (Sk-hep1 and Mahlavu) were maintained in Dulbecco's modified Eagle's medium (DMEM) with 10% fetal bovine serum, 1% non-essential amino acid, 1% L-glutamine, and 1% penicillin/streptomycin. All cells were tested for mycoplasma contamination.
pcDNA3.0/HA˜SLC29A2 was generated according to Chen et al. (2010) (Hepatologs, 52(5), 1690-1701), To stably express SLC29A2 or STAT3D, HCC cell lines were transfected with the plasmid according to the instruction manual by JetPrime transfection reagent (Polyplus), and further selected in the presence of G418 (SK-hep1: 800 μg/mL, Mahlavu: 500 μg/mL)

[1] = test system: luciferase-carrying SK-hep1 cells
Experimental: All animal procedures were conducted under the approval of the institutional animal care and user committee of Academia Sinica. […] The luciferase activities were detected by the IVIS Image system every two weeks, and the images were analyzed with IVIS operating software.
The mice wore sacrificed 48 weeks after the tumor injection or before the tumors grew larger than allowed. The tumor samples were collected and fixed with 4% paraformaldehyde.

late-stage HCC = details: cited from earlier work
SLC29A2-expressing cells = assay: Trans-well (Boyden chamber) migration assay; assay type: cell-based; details: SLC29A2 ectopically expressing cells; FIG. 5C
Experimental: A total of 1×10^4 cells were seeded in the upper chamber of 8 micron Boyden chamber insert (#MCEP24H48, Millipore) containing a serum-free medium. The inserts were then hanged on the 24-well plate containing a complete medium. After 16 hours, the non-migrated cells were wiped out and the migrated cells were fixed with methanol and stained with Liu's stain. The migrated cells were counted by ImageJ software.

SLC29A2 = assay: Confocal microscopy of nuclear translocation; assay type: cell-based; details: FIG. 5E
Experimental: Cells were grown on glass slides. After washing with ice-cold PBS, cells were fixed with methanol, blocked with 5% BSA, and incubated with primary antibodies at 4° C. overnight. The slides were washed with PBS, and incubated with Alexa488 or AIexa594-conjugated secondary antibodies. The slides were then washed with PBS, stained with DAPI and mounted with Dako fluorescent mounting medium (#S3025, Dako). The immunostained cells were acquired by Zeiss LSM 700 laser-scanning microscope with 63X/1.4 objective. The images were analyzed with ZEN, AxioVision, and imagesJ software.

HCC cell lines = HCC cell lines carrying amplified SLC29A2 vs non-amplified cells; FIG. 5A
Experimental: The cell proliferation and cell viability were detected by […] BLUE® reagent (DAL1100, Thermo Fisher) according to the manufacturer's instruction. […] BLUE® for incubation at 37° C. for 1 hour. The ALAMAR BLUB® fluorescence was excited at 560 nm and measured at 590 nm.

Stat3 = details: SLC29A2 ectopically expressing cells, FIG. 5D; for SLC29A2-induced Stat3 phosphorylation: 6B

| SMILES | resistance of cells to sorafenib (cell viability) (SK-hep1 cells; SLC29A2 expressing cells vs control cells, FIG. 6A) | body weight changes and toxicity to mice ([1]; mouse, in vivo) | tumor burden (IVIS) ([1]; oral gavage once a day, sorafenib 10 mg/kg/day, dipyridamole 25 mg/kg/day, 6 weeks after treatment, FIG. 6D) | prolongation of overall survival (late-stage HCC; late-stage HCC patients who received sorafenib) | side effects (late-stage HCC; patients who received sorafenib) | sensitivity of cells to dipyridamole (cell viability) (SK-hep1 cells; SK-hep1 cells expressing SLC29A2 vs control cells, FIG. 5B) | trans-well migration (SLC29A2-expressing cells) | Stat3 nuclear translocation (SLC29A2) | nuclear translocation of SLC29A2 (SLC29A2) | sensitivity of cells to dipyridamole (cell viability, IC50) (HCC cell lines) | cyclin D1 down-regulation (Stat3) | SLC29A2-induced Stat3 phosphorylation (Stat3) | SLC29A2-induced Stat3 phosphorylation (Stat3; listed as SLC29A2 inhibitor) |
| --- | --- | --- | --- | --- | --- | --- | --- | --- | --- | --- | --- | --- | --- |
| CNC(=O)c1cc(Oc2ccc(NC(=O)Nc3ccc(Cl)c(C(F)(F)F)c3)cc2)ccn1 [sorafenib] | much more resistant to sorafenib as compared to the control cells | no significant body weight changes and toxicity | reduced the tumor burden in both SLC29A2-expressing and control groups | 3˜6 months | severe side effects | – | – | – | – | – | – | – | – |
| OCCN(CCO)c1nc(N2CCCCC2)c2nc(N(CCO)CCO)nc(N3CCCCC3)c2n1 [dipyridamole] | – | – | – | – | – | sensitive to dipyridamole than control cells | reduced trans-well migration of SLC29A2-expressing cells | decreased SLC29A2 and Stat3 nuclear translocation | reduces the nuclear translocation of SLC29A2 | sensitive to dipyridamole compared to non-amplified cells | down-regulation of cyclin D1 was reversed | inhibits the SLC29A2-induced Stat3 phosphorylation | decreased SLC29A2-induced Stat3 phosphorylation in a dosage-dependent manner |
